Converted amounts (≈) assume the structure as drawn.
Key:
[1] = Toxicity against human Leukocyte cells assessed induction of structural damage by microscopy; type: cell-based
[2] = Toxicity against human Leukocyte cells assessed as reduction in cell viability by trypan blue exclusion assay; type: cell-based
[3] = Genotoxicity in human Leukocyte cells assessed as induction of DNA single strand breaks by single gel electrophoresis based alkaline comet assay; type: toxicity, cell-based
Nakaseomyces glabratus [4] = experiment: Antifungal activity against Candida glabrata clinical isolates by broth microdilution method; type: functional
Candida tropicalis [5] = experiment: Antifungal activity against Candida tropicalis clinical isolates by broth microdilution method; type: functional
Trichosporon asahii [6] = experiment: Antifungal activity against Trichosporon asahii clinical isolates by broth microdilution method; type: functional
Candida parapsilosis [7] = experiment: Antifungal activity against Candida parapsilosis clinical isolates by broth microdilution method; type: functional; settings: Lodderomyces parapsilosis
Nakaseomyces glabratus [8] = experiment: Inhibition of ergosterol biosynthesis in Candida glabrata clinical isolates assessed as reduction in mean cellular ergosterol content by spectrophotometry; type: functional
Candida tropicalis [9] = experiment: Inhibition of ergosterol biosynthesis in Candida tropicalis clinical isolates assessed as reduction in mean cellular ergosterol content by spectrophotometry; type: functional
Candida parapsilosis [10] = experiment: Inhibition of ergosterol biosynthesis in Candida parapsilosis clinical isolates assessed as reduction in mean cellular ergosterol content by spectrophotometry; type: functional
Trichosporon asahii [11] = experiment: Inhibition of ergosterol biosynthesis in Trichosporon asahii clinical isolates assessed as reduction in mean cellular ergosterol content by spectrophotometry; type: functional

In the case of `CCCCCCCCCCn1cc[n+](C)c1.[Cl-]`, the Activity [1] is reported as “Non-toxic”, the Activity [2] is reported as “Non-toxic” and the Activity [3] is reported as “Non-toxic”. It also gave an MIC (Nakaseomyces glabratus [4]) of 7.8 µg/mL, an MIC50 (Nakaseomyces glabratus [4]) of 15.6 µg/mL and an MIC (Candida tropicalis [5]) of 0.9 µg/mL. It also gave an MIC50 (Candida tropicalis [5]) of 1.9 µg/mL, an MIC (Trichosporon asahii [6]) of 7.8 µg/mL and an MIC50 (Trichosporon asahii [6]) of 31.2 µg/mL. For the same compound, the MIC (Candida parapsilosis [7]) was 1.9 µg/mL and the MIC50 (Candida parapsilosis [7]) was 7.8 µg/mL.

With `CCCCCCCCCCCCCCCCn1cc[n+](C)c1.F[P-](F)(F)(F)(F)F` the Activity [1] was “Non-toxic”, the Activity [2] was “Non-toxic” and the Activity [3] was “Non-toxic”. The MIC (Nakaseomyces glabratus [4]) was 1.9 µg/mL, the MIC50 (Nakaseomyces glabratus [4]) was 3.9 µg/mL and the MIC (Candida tropicalis [5]) was 0.9 µg/mL. The MIC50 (Candida tropicalis [5]) was 1.9 µg/mL, the MIC (Trichosporon asahii [6]) was 15.6 µg/mL and the MIC50 (Trichosporon asahii [6]) was 15.6 µg/mL. The MIC (Candida parapsilosis [7]) was 0.9 µg/mL and the MIC50 (Candida parapsilosis [7]) was 7.8 µg/mL.

With `CCCCCCCCCCn1cc[n+](C)c1.CS(=O)(=O)[O-]` the Activity [1] was “Non-toxic”, the Activity [2] was “Non-toxic” and the Activity [3] was “Non-toxic”. It also gave an MIC (Nakaseomyces glabratus [4]) of 15.6 µg/mL, an MIC50 (Nakaseomyces glabratus [4]) of 31.2 µg/mL and an MIC (Candida tropicalis [5]) of 1.9 µg/mL. The MIC50 (Candida tropicalis [5]) was 1.9 µg/mL, the MIC (Trichosporon asahii [6]) was 31.2 µg/mL and the MIC50 (Trichosporon asahii [6]) was 62.5 µg/mL. It also gave an MIC (Candida parapsilosis [7]) of 1.9 µg/mL and an MIC50 (Candida parapsilosis [7]) of 7.8 µg/mL.

With `CCCCCCCCCCCCCCCCn1cc[n+](C)c1.F[B-](F)(F)F` the Activity [1] was “Non-toxic”, the Activity [2] was “Non-toxic” and the Activity [3] was “Non-toxic”. For the same compound, the “inhibition (INH)” value (Nakaseomyces glabratus [8]) was 33%, the “inhibition (INH)” value (Candida tropicalis [9]) was 33% and the “inhibition (INH)” value (Candida parapsilosis [10]) was 33%. For the same compound, the “inhibition (INH)” value (Trichosporon asahii [11]) was 33%, the MIC (Nakaseomyces glabratus [4]) was 0.9 µg/mL and the MIC50 (Nakaseomyces glabratus [4]) was 0.9 µg/mL. For the same compound, the MIC (Candida tropicalis [5]) was 0.9 µg/mL, the MIC50 (Candida tropicalis [5]) was 0.9 µg/mL and the MIC (Trichosporon asahii [6]) was 1.95 µg/mL. For the same compound, the MIC50 (Trichosporon asahii [6]) was 3.9 µg/mL, the MIC (Candida parapsilosis [7]) was 0.4 µg/mL and the MIC50 (Candida parapsilosis [7]) was 3.9 µg/mL.

For `CCCCCCCCCCCCCCn1cc[n+](C)c1.O=S(=O)([N-]S(=O)(=O)C(F)(F)F)C(F)(F)F`, the Activity [1] was “Non-toxic”, the Activity [2] was “Non-toxic” and the Activity [3] was “Non-toxic”. For the same compound, the MIC (Nakaseomyces glabratus [4]) was 3.9 µg/mL, the MIC50 (Nakaseomyces glabratus [4]) was 15.6 µg/mL and the MIC (Candida tropicalis [5]) was 0.9 µg/mL. For the same compound, the MIC50 (Candida tropicalis [5]) was 0.9 µg/mL, the MIC (Trichosporon asahii [6]) was 31.2 µg/mL and the MIC50 (Trichosporon asahii [6]) was 62.5 µg/mL. For the same compound, the MIC (Candida parapsilosis [7]) was 0.9 µg/mL and the MIC50 (Candida parapsilosis [7]) was 0.9 µg/mL.

For `CCCCCCCCCCCCCCCCn1cc[n+](C)c1.[Cl-]`, the Activity [1] was “Non-toxic”, the Activity [2] was “Non-toxic” and the Activity [3] was “Non-toxic”. The MIC (Nakaseomyces glabratus [4]) was 0.9 µg/mL, the MIC50 (Nakaseomyces glabratus [4]) was 0.9 µg/mL and the MIC (Candida tropicalis [5]) was 0.9 µg/mL. The MIC50 (Candida tropicalis [5]) was 0.9 µg/mL, the MIC (Trichosporon asahii [6]) was 0.9 µg/mL and the MIC50 (Trichosporon asahii [6]) was 0.9 µg/mL. It also gave an MIC (Candida parapsilosis [7]) of 0.9 µg/mL and an MIC50 (Candida parapsilosis [7]) of 0.9 µg/mL.

Compound `OC(Cn1cncn1)(Cn1cncn1)c1ccc(F)cc1F` [FLUCONAZOLE] has an MIC (Nakaseomyces glabratus [4]) of 4 µg/mL (≈ 13.1 µM), an MIC50 (Nakaseomyces glabratus [4]) of 8 µg/mL (≈ 26.1 µM) and an MIC (Candida tropicalis [5]) of 2 µg/mL (≈ 6.53 µM). For the same compound, the MIC50 (Candida tropicalis [5]) was 8 µg/mL (≈ 26.1 µM), the MIC (Trichosporon asahii [6]) was 4 µg/mL (≈ 13.1 µM) and the MIC50 (Trichosporon asahii [6]) was 8 µg/mL (≈ 26.1 µM). It also gave an MIC (Candida parapsilosis [7]) of 1 µg/mL (≈ 3.27 µM) and an MIC50 (Candida parapsilosis [7]) of 1 µg/mL (≈ 3.27 µM).

With `CC(=O)N1CCN(c2ccc(OCC3COC(Cn4ccnc4)(c4ccc(Cl)cc4Cl)O3)cc2)CC1` (stereo unspecified) [KETOCONAZOLE] the MIC (Nakaseomyces glabratus [4]) was 0.5 µg/mL (≈ 0.941 µM), the MIC50 (Nakaseomyces glabratus [4]) was 4 µg/mL (≈ 7.53 µM) and the MIC (Candida tropicalis [5]) was 0.25 µg/mL (≈ 0.47 µM). The MIC50 (Candida tropicalis [5]) was 4 µg/mL (≈ 7.53 µM), the MIC (Trichosporon asahii [6]) was 0.25 µg/mL (≈ 0.47 µM) and the MIC50 (Trichosporon asahii [6]) was 4 µg/mL (≈ 7.53 µM). It also gave an MIC (Candida parapsilosis [7]) of 0.125 µg/mL (≈ 0.235 µM) and an MIC50 (Candida parapsilosis [7]) of 1 µg/mL (≈ 1.88 µM).
